The source of these data is patent US20240376097A1, “BCL-2 Inhibitor” (BeiGene Ltd., priority 2020, published 2024).

Where two headings read alike, the source gives them in different places.

Data set [1] is described as follows: Metabolic Stability Study, liver microsome incubation (mouse). Particulars: mouse liver microsomes 0.5 mg/mL, 1 μM compound, NADPH; for half-life at 1 μM: NA^# = very stable, beyond the detection limits, read-out: T1/2 (min) mouse; for microsomal CLint at 1 μM: read-out: CLint (μL × min^−1 × mg^−1) mouse. Format: in vitro ADME. How it is done:
(§1) Biological Example: Metabolic Stability Study
(§2) The metabolic stability of some compounds was evaluated by using the liver microsome incubation system in vitro. Briefly, the test compounds at 1 μM, were incubated with 0.5 mg/mL liver microsomes from different species (human, dog, rat and mouse) with an NADPH regenerating system at 37° C. Samples were quenched at three time points (0, 30, 60 min) with organic solvent containing internal standards, and the supernatant was analyzed for parent loss via LC-MS/MS. Midazolam was used as the positive control to validate the incubation system.
(§3) where Cprotein is the microsomal protein concentration in the incubation system.
(§4) The value of CLint and T1/2 of Example F132b in WO2019210818 and representative compounds of the disclosure were determined, and the results are shown in Table 5.

Data set [2] has as its target recombinant human Bcl-2 D103Y protein (Homo sapiens (Human), UniProt P10415, D103Y). Nature of the data set: Bcl-2-D103Y Biochemical Assay (TR-FRET). Particulars: for IC50: TR-FRET, FITC labeled Bak peptide; for Ratio of Bcl-2 D103Y/Bcl-2 WT: ratio of IC50. Format: binding. The procedure, abridged: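 Recombinant human Bcl-2 D103Y binding to its ligand measured by TR-FRET (ex 337 nm, em 490/520 nm) with increasing compound concentrations. Percent inhibition from the 490/520 nm ratio; IC50 from four-parameter logistic fit.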
(In TR-FRET formats the signal depends on donor and acceptor labels being close together.)

Data set [3] addresses Recombinant human Bcl-2 protein (Homo sapiens (Human), UniProt P10415). Description: Bcl-2 TR-FRET Assay. Format: binding. The procedure, abridged:
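0.05 nM recombinant Bcl-2 preincubated 0.5 h at room temperature with 10-point compound dilutions (top final 1, 0.1, 0.02 or 0.01 uM) in pH 7.5 phosphate buffer. FITC-Bak peptide (0.5 nM) and anti-6His Tb cryptate then added for 1 h. TR-FRET read; IC50 from four-parameter logistic fit.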

Data set [4] is described as follows: Metabolic Stability Study, liver microsome incubation (human). Format: in vitro ADME. Particulars: human liver microsomes 0.5 mg/mL, 1 μM compound, NADPH; for half-life at 1 μM: NA^# = very stable, beyond the detection limits, read-out: T1/2 (min) Human; for microsomal CLint at 1 μM: read-out: CLint (μL × min^−1 × mg^−1) Human. How it is done:
as §1, §2, §3, §4
Background: Liver microsomes are vesicles of endoplasmic reticulum, rich in cytochrome P450 enzymes.

The mark [5] stands for this setting: Bcl-2 wild type, TR-FRET, read-out: Biochemical assay (IC50, nM) Bcl-2 WT.
Setting [6] is: wild type Bcl-2, unit inferred, read-out: Bcl-2 WT.

recombinant human Bcl-2 D103Y protein, sequence (P10415 whole entry D103Y): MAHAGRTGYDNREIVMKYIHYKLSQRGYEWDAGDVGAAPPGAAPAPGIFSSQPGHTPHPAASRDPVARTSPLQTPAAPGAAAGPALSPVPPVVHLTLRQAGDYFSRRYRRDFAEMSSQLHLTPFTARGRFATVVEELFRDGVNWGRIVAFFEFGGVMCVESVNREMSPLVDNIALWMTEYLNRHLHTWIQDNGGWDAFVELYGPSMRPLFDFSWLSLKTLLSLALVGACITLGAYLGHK
Recombinant human Bcl-2 protein, sequence (P10415 whole entry): as the sequence (P10415 whole entry D103Y) above, with Y103D counted along it

Turning to `COc1cc(CN2CCN(C3CC4(C3)CN(c3ccc(C(=O)NS(=O)(=O)c5ccc(NC[C@H]6CC[C@](C)(O)CC6)c([N+](=O)[O-])c5)c(Oc5cnc6[nH]cc(F)c6c5)c3)C4)[C@H](c3ccccc3C(C)C)C2)ccc1OC1CC1` [Example 321, 4-(6-((R)-4-(4-cyclopropoxy-3-methoxybenzyl)-2-(2-isopropylphenyl)piperazin-1-yl)-2-azaspiro[3.3]heptan-2-yl)-2-((3-fluoro-1H-pyrolo[2,3-b]pyridin-5-yl)oxy)-N-((4-((((1r,4r)-4-hydroxy-4-methylcyclohexy)methyl)amino)-3-nitrophenyl)sulfonyl)benzamide], the half-life at 1 μM came out at 628 min in data set [1] and 1020 min in data set [4]. In addition, the values for the microsomal CLint at 1 μM in data set [1] and in data set [4] were 2.2 µL/min/mg and 1.4 µL/min/mg, respectively. Further, the IC50 in data set [2] was found to be 0.14 nM; in data set [3] (setting [5]), 0.17 nM; in data set [3] (setting [6]), 0.17 nM. Besides, the “Ratio of Bcl-2 D103Y/Bcl-2 WT” value in data set [2] is 0.79.
For the compound `COc1cc(CN2CCN(C3CC4(CCN(c5ccc(C(=O)NS(=O)(=O)c6ccc(NC[C@H]7CC[C@](C)(O)CC7)c([N+](=O)[O-])c6)c(Oc6cnc7[nH]ccc7c6)c5)CC4)C3)[C@H](c3ccccc3C(C)C)C2)ccc1C1CC1` [Example 257], in data set [1], the half-life at 1 μM amounted to 254 min and the microsomal CLint at 1 μM was found to be 5.5 µL/min/mg. In addition, the IC50 in data set [3] (setting [5]) was found to be 0.4 nM. Besides, in data set [4], the half-life at 1 μM came to 372 min and the microsomal CLint at 1 μM turned out to be 3.7 µL/min/mg.
Regarding `COc1cc(CN2CCN(C3CC4(CCN(c5ccc(C(=O)NS(=O)(=O)c6ccc(NC[C@H]7CC[C@](C)(O)CC7)c([N+](=O)[O-])c6)c(Oc6cnc7[nH]cc(F)c7c6)c5)CC4)C3)[C@H](c3ccccc3C(C)C)C2)cc2c1OCC2(C)C` [Example 285, 2-((3-fluoro-1H-pyrrolo[2,3-b]pyridin-5-yl)oxy)-N-((4-((((1r,4r)-4-hydroxy-4-methylcyclohexyl)methyl)amino)-3-nitrophenyl)sulfonyl)-4-(2-((R)-2-(2-isopropylphenyl)-4-((7-methoxy-3,3-dimethyl-2,3-dihydrobenzofuran-5-yl)methyl)piperazin-1-yl)-7-azaspiro [3.5]nonan-7-yl)benzamide], the half-life at 1 μM in data set [1] was determined as 177 min; in data set [4], 299 min. In addition, the figures for the microsomal CLint at 1 μM in data set [1] and in data set [4] were 7.8 µL/min/mg and 4.6 µL/min/mg, respectively. In addition, the IC50 in data set [2] was 0.49 nM; in data set [3] (setting [5]) it was 0.26 nM; in data set [3] (setting [6]), 0.26 nM. The “Ratio of Bcl-2 D103Y/Bcl-2 WT” value in data set [2] is 1.9.
As to `COc1cc(CN2CCN(C3CC4(CCN(c5ccc(C(=O)NS(=O)(=O)c6ccc(NC[C@H]7CC[C@](C)(O)CC7)c([N+](=O)[O-])c6)c(Oc6cnc7[nH]cc(F)c7c6)c5)CC4)C3)[C@H](c3ccccc3C(C)C)C2)cc2ccoc12` [Example 281, 2-((3-fluoro-1H-pyrrolo[2,3-b]pyridin-5-yl)oxy)-N-((4-((((1r,4r)-4-hydroxy-4-methylcyclohexyl)methyl)amino)-3-nitrophenyl)sulfonyl)-4-(2-((R)-2-(2-isopropylphenyl)-4-((7-methoxybenzofuran-5-yl)methyl)piperazin-1-yl)-7-azaspiro[3.5]nonan-7-yl)benzamide], the half-life at 1 μM in data set [1] was found to be 564 min; in data set [4] it was 870 min. The figures for the microsomal CLint at 1 μM in data set [1] and in data set [4] were 2.5 µL/min/mg and 1.6 µL/min/mg, respectively. Further, the results for the IC50 in data set [2], in data set [3] (setting [5]) and in data set [3] (setting [6]) were 0.51 nM, 0.43 nM and 0.43 nM, respectively. Also, in data set [2], the “Ratio of Bcl-2 D103Y/Bcl-2 WT” value turned out to be 1.2.
Take `COc1ccc(CN2CCN(C3CC4(C3)CN(c3ccc(C(=O)NS(=O)(=O)c5ccc(NC[C@H]6CC[C@](C)(O)CC6)c([N+](=O)[O-])c5)c(Oc5cnc6[nH]ccc6c5)c3)C4)[C@H](c3ccccc3C(C)C)C2)cc1` [Example 147, 2-((1H-pyrrolo[2,3-b]pyridin-5-yl)oxy)-N-((4-((((1r,4r)-4-hydroxy-4-methylcyclohexyl)methyl)amino)-3-nitrophenyl)sulfonyl)-4-(6-((R)-2-(2-isopropylphenyl)-4-(4-methoxybenzyl)piperazin-1-yl)-2-azaspiro[3.3]heptan-2-yl) benzamide]: the half-life at 1 μM in data set [1] came out at 301 min. Besides, the microsomal CLint at 1 μM in data set [1] was 4.6 µL/min/mg; in data set [4] it was < 1 µL/min/mg. The IC50 in data set [2] worked out at 0.086 nM; in data set [3] (setting [5]), 0.054 nM; in data set [3] (setting [6]), 0.054 nM. The “Ratio of Bcl-2 D103Y/Bcl-2 WT” value in data set [2] was 1.6.
With `CC(C)c1ccccc1C1CN(Cc2ccccc2F)CCN1C1CC2(CCN(c3ccc(C(=O)NS(=O)(=O)c4ccc(NC[C@H]5CC[C@](C)(O)CC5)c([N+](=O)[O-])c4)c(Oc4cnc5[nH]ccc5c4)c3)CC2)C1` (some centres unmarked) [Example 46, 2-((1H-pyrrolo[2,3-b]pyridin-5-yl)oxy)-4-(2-(4-(2-fluorobenzyl)-2-(2-isopropylphenyl)piperazin-1-yl)-7-azaspiro[3.5]nonan-7-yl)-N-((4-((((1r,4r)-4-hydroxy-4-methylcyclohexyl)methyl)amino)-3-nitrophenyl)sulfonyl)benzamide], the half-life at 1 μM worked out at 131 min in data set [1] and 153 min in data set [4]. Besides, the results for the microsomal CLint at 1 μM in data set [1] and in data set [4] were 10.5 µL/min/mg and 9.1 µL/min/mg, respectively. The IC50 in data set [2] stood at 1.8 nM; in data set [3] (setting [5]), 0.34 nM; in data set [3] (setting [6]), 0.34 nM. Besides, in data set [2], the “Ratio of Bcl-2 D103Y/Bcl-2 WT” value was 5.1.
Turning to `COc1cc(CN2CCN(C3CC4(C3)CN(c3ccc(C(=O)NS(=O)(=O)c5ccc(NC[C@H]6CC[C@](C)(O)CC6)c([N+](=O)[O-])c5)c(Oc5cnc6[nH]cc(F)c6c5)c3)C4)[C@H](c3ccccc3C(C)C)C2)cc(F)c1OC` [Example 230, 2-((3-fluoro-1H-pyrrolo[2,3-b]pyridin-5-yl)oxy)-4-(6-((R)-4-(3-fluoro-4,5-dimethoxybenzyl)-2-(2-isopropylphenyl)piperazin-1-yl)-2-azaspiro[3.3]heptan-2-yl)-N-((4-((((1r,4r)-4-hydroxy-4-methylcyclohexyl)methyl)amino)-3-nitrophenyl)sulfonyl)benzamide], in data set [1], the half-life at 1 μM amounted to 183 min and the microsomal CLint at 1 μM was determined as 7.6 µL/min/mg. In data set [3] (setting [5]), the IC50 was 0.19 nM. In data set [4], the half-life at 1 μM came to 373 min and the microsomal CLint at 1 μM was 3.7 µL/min/mg.
On to `COc1ccc(CN2CCN(C3CC4(CCN(c5ccc(C(=O)NS(=O)(=O)c6ccc(NC[C@H]7CC[C@](C)(O)CC7)c([N+](=O)[O-])c6)c(Oc6cnc7[nH]ccc7c6)c5)CC4)C3)[C@H](c3ccccc3C(C)C)C2)cc1OC` [Example 81a, 2-((1H-pyrrolo[2,3-b]pyridin-5-yl)oxy)-4-(2-((R)-4-(3,4-dimethoxybenzyl)-2-(2-isopropylphenyl)piperazin-1-yl)-7-azaspiro[3.5]nonan-7-yl)-N-((4-((((1r,4r)-4-hydroxy-4-methylcyclohexyl)methyl)amino)-3-nitrophenyl)sulfonyl)benzamide], for which, in data set [1], the half-life at 1 μM was found to be 219 min and the microsomal CLint at 1 μM amounted to 6.32 µL/min/mg. For the same compound, in data set [3] (setting [5]), the IC50 turned out to be 0.038 nM. Besides, the microsomal CLint at 1 μM in data set [4] was < 1 µL/min/mg.
